Test results taken from publication PMC8966664 (Frontiers in Pharmacology, 2022).

Assays:
Format in all cases: in vivo, Sprague Dawley rats
[1] = test system: RTS-induced liver injury; experiment: Serum ALT, hepatic MDA and GSH in RTS-induced liver injury; conditions: rats
Protocol: (§1) EX and GA were dissolved in distilled water at 37°C for oral administration with the dosage of EX and GA as 500 mg/kg and 50 mg/kg. […] RTS was given following the last dose of distilled water/GA/EX. Detailed dosage regimens are described in Supplementary Figure S2. All rats were sacrificed at 48 h after the last dosing. Serum and liver samples were collected and stored at −80°C until use.
The serum alanine transaminase (ALT) level was measured by a kit obtained from Sigma-Aldrich Chemical Co. (St. Louis, MO, United States). The total bilirubin level was measured by the QuantiChromTM Bilirubin Assay kit according to the manufacturer’s instructions (BioAssay Systems, Hayward, CA, United States). Hepatic malondialdehyde (MDA) level was measured using a kit obtained from Nanjing Jiancheng Bioengineering Institute (Nanjing, China). Total GSH content in the liver was measured following a standard spectrophotometric method using Ellaman’s reagent.

[2] = test system: pyrrole-protein adducts; experiment: Formation of pyrrole-protein adducts in liver and serum/plasma of RTS-treated rats
Protocol: as §1
The pyrrole-protein adducts were measured according to our previously developed method ([Lin et al., 2011]; [Ruan et al., 2014]). Briefly, 50 mg liver or 100 µL serum/plasma was mixed with acetone and centrifuged at 900 x g for 10 min. The precipitated protein was treated with silver nitrate (20 mg/ml) in ethanol containing 5% trifluoroacetic acid to release pyrrole moiety from the pyrrole-protein adducts. After centrifugation, an aliquot of the supernatant was incubated with 4-dimethylaminobenzaldehyde (20 mg/ml) at 56°C for 10 min. The mixture was filtered and subjected to LC-MS/MS analysis. 7,9-diGS-DHP was used as a standard with a concentration ranging from 0.2 to 2000 nM and underwent the same preparation process to construct a calibration curve. […] After centrifuging at 20,000 x g for 30 min, the supernatants were collected and analyzed by LC-MS/MS according to our previously developed methods ([Ma et al., 2019]; [He et al., 2021a]; [Ma et al., 2021]).
The LC-MS/MS analysis was performed on an Agilent 6460 Triple Quadrupole LC/MS System using a Waters Acquity BEH C18 column (2.1 × 100 mm, […]). For the detection of pyrrole-protein adducts, the mobile phase of water containing 0.1% formic acid (A) and acetonitrile containing 0.1% formic acid (B) was used with a gradient elution as follows: 0–5 min, 35–95% B; 5.5–6 min, 95–35% B. The flow rate was 0.3 ml/min. The injection volume was 3 μL. […] The injection volume was 5 µL. The mass spectrometer was operated in multiple reactions monitoring for data acquisition.

[3] = test system: sinusoidal endothelial cells; experiment: Immunofluorescence of RECA-1 in liver sections; conditions: rats; EX or GA treated groups + RTS
Protocol: as §1
The largest lobe of the rat liver was sliced, cold-embedded in Tissue-Tek OCT compound, and processed for immunohistochemistry according to the Abcam IHC frozen sections staining protocol. The tissue slices were incubated with rat endothelial cell antigen (RECA)-1 antibody and Alexa Fluor 488-conjugated goat anti-mouse IgG, and then stained with DAPI and observed under Olympus FluoViewTM FV1000 confocal microscope.

[4] = substance alone (EX/GA single and multiple administrations; RTS single dose), 48 h
[5] = multiple treatment (EX 500 mg/kg or GA 50 mg/kg) + RTS
[6] = single treatment (EX 500 mg/kg or GA 50 mg/kg) + RTS

For `CC1(C)[C@@H](O)CC[C@]2(C)[C@H]3C(=O)C=C4[C@@H]5C[C@@](C)(C(=O)O)CC[C@]5(C)CC[C@@]4(C)[C@]3(C)CC[C@@H]12` [GA, 18β-glycyrrhetinic acid], which “RTS-induced hepatic GSH elevation” value ([1]; EX or GA treatment + RTS, especially multiple dosage regimens) is on record?
The value was “attenuated”.

And the “RTS-induced hepatic MDA elevation” value ([1]; multiple doses + RTS 40 mg/kg)?
The value was “significantly attenuated”.

What about the “RTS-induced serum ALT elevation” value ([1]; multiple doses + RTS 40 mg/kg) of the same molecule?
Its value is “significantly attenuated”.

And the “RTS-induced hepatic MDA elevation” value ([1]; single dose + RTS 40 mg/kg)?
Its value is “significantly reduced”.

What about the “RTS-induced serum ALT elevation” value ([1]; single dose + RTS 40 mg/kg) of the same molecule?
Its value is “significantly reduced”.

And the “hepatic MDA level compared with vehicle” value [1, 4]?
Its value is “unchanged”.

What about the “serum ALT level compared with vehicle” value [1, 4] of the same molecule?
The value was “unchanged”.

And the “reduction of pyrrole-protein adducts in liver” value [2, 5]?
Its value is 32.5%.

What about the “reduction of pyrrole-protein adducts in plasma” value [2, 5] of the same molecule?
The value was 56.5%.

What about the “reduction of pyrrole-protein adducts in liver” value [2, 6] of the same molecule?
The value was 30.3%.

What about the “reduction of pyrrole-protein adducts in plasma” value [2, 6] of the same molecule?
The value was 50.8%.

What about the “RTS-induced damage of sinusoids (RECA-1 immunofluorescence)” value [3] of the same molecule?
Its value is “significantly less”.
